Results from patent publication US10927123B2, “Modulators of the beta-3 adrenergic receptor useful for the treatment or prevention of disorders related thereto” (Arena Pharmaceuticals, Inc., priority 2016, dated 2021).

Target: Beta-3 Adrenergic Receptor (Homo sapiens (Human), UniProt P13945)
Test: HTRF cAMP antagonist assay (IC50 determination)
Format: cell-based
Settings: CHO-K1 cells stably expressing recombinant receptor; antagonism of isoproterenol at EC90; cAMP readout
In short: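 In this functional readout, recombinant CHO-K1 cells received compound, then isoproterenol at its EC90. After 1 h at room temperature, cAMP levels were determined by HTRF using an on-plate standard curve, and IC50 values were fitted.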

Chain of Beta-3 Adrenergic Receptor (P13945 whole entry, species assumed): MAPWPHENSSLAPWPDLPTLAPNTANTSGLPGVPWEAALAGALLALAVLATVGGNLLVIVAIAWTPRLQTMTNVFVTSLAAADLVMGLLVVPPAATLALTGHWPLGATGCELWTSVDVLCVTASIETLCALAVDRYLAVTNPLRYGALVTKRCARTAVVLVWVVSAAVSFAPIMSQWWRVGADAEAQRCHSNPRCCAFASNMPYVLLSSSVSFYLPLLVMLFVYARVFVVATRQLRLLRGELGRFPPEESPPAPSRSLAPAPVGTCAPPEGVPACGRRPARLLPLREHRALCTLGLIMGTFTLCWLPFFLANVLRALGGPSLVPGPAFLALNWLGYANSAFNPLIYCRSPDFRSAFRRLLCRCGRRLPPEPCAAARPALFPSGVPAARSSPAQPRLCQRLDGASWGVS

SMILES | IC50 [nM]
CCOc1ccc(-c2ccc(CN)c(F)c2)cc1S(=O)(=O)N1CCC2(CC1)C[C@H](NC[C@H](O)COc1cccc(S(=O)(=O)C3(CO)CC3)c1)CO2 [Compound 220, (S)-1-((S)-8-(4′-(aminomethyl)-4-ethoxy-3′-fluorobiphenyl-3-ylsulfonyl)-1-oxa-8-azaspiro[4.5]decan-3-ylamino)-3-(3-(1-(hydroxymethyl)cyclopropylsulfonyl)phenoxy)propan-2-ol] | 27.5
O=S(=O)(c1cnc(Cl)c(Br)c1)N1CCC2(CC1)C[C@@H](NC[C@H](O)COc1cccc(S(=O)(=O)C3(CO)CC3)c1)CO2 [Compound 221, (S)-1-((R)-8-(5-bromo-6-chloropyridin-3-ylsulfonyl)-1-oxa-8-azaspiro[4.5]decan-3-ylamino)-3-(3-(1-(hydroxymethyl)cyclopropylsulfonyl)phenoxy)propan-2-ol] | 20.6
CN1CCN(C)c2ncc(S(=O)(=O)N3CCC4(CC3)C[C@@H](NC[C@H](O)COc3cccc(S(=O)(=O)C5(CO)CC5)c3)CO4)cc21 [Compound 222, (S)-1-((R)-8-(1,4-dimethyl-1,2,3,4-tetrahydropyrido[3,2-b]pyrazin-7-ylsulfonyl)-1-oxa-8-azaspiro[4.5]decan-3-ylamino)-3-(3-(1-(hydroxymethyl)cyclopropylsulfonyl)phenoxy)propan-2-ol] | 47.6
COc1ccc(S(=O)(=O)N2CCC3(CC2)C[C@H](NC[C@H](O)COc2cccc(S(=O)(=O)C(C)(C)CO)c2)CO3)cc1-c1ccc(CN)cc1 [Compound 223, 2-(3-((S)-3-((S)-8-(4′-(aminomethyl)-6-methoxybiphenyl-3-ylsulfonyl)-1-oxa-8-azaspiro[4.5]decan-3-ylamino)-2-hydroxypropoxy)phenylsulfonyl)-2-methylpropan-1-ol] | 83.6
COc1ccc(S(=O)(=O)N2CCC3(CC2)C[C@H](NC[C@H](O)COc2cccc(S(=O)(=O)C(C)(C)CO)c2)CO3)cc1-c1ccc(C2(N)CC2)cc1 [Compound 224, 2-(3-((S)-3-((S)-8-(4′-(1-aminocyclopropyl)-6-methoxybiphenyl-3-ylsulfonyl)-1-oxa-8-azaspiro[4.5]decan-3-ylamino)-2-hydroxypropoxy)phenylsulfonyl)-2-methylpropan-1-ol] | 73.2
COc1ccc(S(=O)(=O)N2CCC3(CC2)C[C@H](NC[C@H](O)COc2cccc(S(=O)(=O)C4(CO)CC4)c2)CO3)cc1-c1ccc(C2(N)CC2)cc1 [Compound 225, (S)-1-((S)-8-(4′-(1-aminocyclopropyl)-6-methoxybiphenyl-3-ylsulfonyl)-1-oxa-8-azaspiro[4.5]decan-3-ylamino)-3-(3-(1-(hydroxymethyl)cyclopropylsulfonyl)phenoxy)propan-2-ol] | 33.1
CCOc1ccc(-c2ccc(CN)cc2)cc1S(=O)(=O)N1CCC2(CC1)C[C@H](NC[C@H](O)COc1cccc(S(=O)(=O)CC)c1)CO2 [Compound 226, (S)-1-((S)-8-(4′-(aminomethyl)-4-ethoxybiphenyl-3-ylsulfonyl)-1-oxa-8-azaspiro[4.5]decan-3-ylamino)-3-(3-(ethylsulfonyl)phenoxy)propan-2-ol] | 12.5
COc1ccc(S(=O)(=O)N2CCC3(CC2)C[C@H](NC[C@H](O)COc2cccc(S(=O)(=O)C4CC4)c2)CO3)cc1-c1ccc(CN)cc1 [Compound 227, (S)-1-((S)-8-(4′-(aminomethyl)-6-methoxybiphenyl-3-ylsulfonyl)-1-oxa-8-azaspiro[4.5]decan-3-ylamino)-3-(3-(cyclopropylsulfonyl)phenoxy)propan-2-ol] | 17.9
COc1c(-c2ccc(CN)cc2)cccc1S(=O)(=O)N1CCC2(CC1)C[C@H](NC[C@H](O)COc1cccc(S(=O)(=O)C3CC3)c1)CO2 [Compound 228, (S)-1-((S)-8-(4′-(aminomethyl)-2-methoxybiphenyl-3-ylsulfonyl)-1-oxa-8-azaspiro[4.5]decan-3-ylamino)-3-(3-(cyclopropylsulfonyl)phenoxy)propan-2-ol] | 29.1
COc1cc(-c2ccc(CN)cc2)cc(S(=O)(=O)N2CCC3(CC2)C[C@H](NC[C@H](O)COc2cccc(S(=O)(=O)C4CC4)c2)CO3)c1 [Compound 229, (S)-1-((S)-8-(4′-(aminomethyl)-5-methoxybiphenyl-3-ylsulfonyl)-1-oxa-8-azaspiro[4.5]decan-3-ylamino)-3-(3-(cyclopropylsulfonyl)phenoxy)propan-2-ol] | 11.6
CCOc1ccc(-c2ccc(CN)cc2)cc1S(=O)(=O)N1CCC2(CC1)C[C@H](NC[C@H](O)COc1cccc(S(=O)(=O)COC)c1)CO2 [Compound 230, (S)-1-((S)-8-(4′-(aminomethyl)-4-ethoxybiphenyl-3-ylsulfonyl)-1-oxa-8-azaspiro[4.5]decan-3-ylamino)-3-(3-(methoxymethylsulfonyl)phenoxy)propan-2-ol] | 15
CCOc1ccc(-c2ccc(CN)cc2)cc1S(=O)(=O)N1CCC2(CC1)C[C@H](NC[C@H](O)COc1cccc(S(C)(=O)=O)c1)CO2 [Compound 231, (S)-1-((S)-8-(4′-(aminomethyl)-4-ethoxybiphenyl-3-ylsulfonyl)-1-oxa-8-azaspiro[4.5]decan-3-ylamino)-3-(3-(methylsulfonyl)phenoxy)propan-2-ol] | 19.6
CCOc1ccc(-c2ccc(CN)cc2)cc1S(=O)(=O)N1CCC2(CC1)C[C@H](NC[C@H](O)COc1cccc(S(=O)(=O)C(C)C)c1)CO2 [Compound 232, (S)-1-((S)-8-(4′-(aminomethyl)-4-ethoxybiphenyl-3-ylsulfonyl)-1-oxa-8-azaspiro[4.5]decan-3-ylamino)-3-(3-(isopropylsulfonyl)phenoxy)propan-2-ol] | 16.6
CC(F)S(=O)(=O)c1cccc(OC[C@@H](O)CN[C@H]2COC3(CCN(S(=O)(=O)c4cnc5ccccc5c4)CC3)C2)c1 (stereo partly drawn) [Compound 233, (2S)-1-(3-(1-fluoroethylsulfonyl)phenoxy)-3-((R)-8-(quinolin-3-ylsulfonyl)-1-oxa-8-azaspiro[4.5]decan-3-ylamino)propan-2-ol] | 9.72
CC(F)S(=O)(=O)c1cccc(OC[C@@H](O)CN[C@H]2COC3(CCN(S(=O)(=O)c4ccc5ncccc5c4)CC3)C2)c1 (stereo partly drawn) [Compound 234, (2S)-1-(3-(1-fluoroethylsulfonyl)phenoxy)-3-((R)-8-(quinolin-6-ylsulfonyl)-1-oxa-8-azaspiro[4.5]decan-3-ylamino)propan-2-ol] | 10.2
CC(F)S(=O)(=O)c1cccc(OC[C@@H](O)CN[C@H]2COC3(CCN(S(=O)(=O)c4cnc5c(c4)N(C)CCO5)CC3)C2)c1 (stereo partly drawn) [Compound 235, (2S)-1-(3-(1-fluoroethylsulfonyl)phenoxy)-3-((R)-8-(1-methyl-2,3-dihydro-1H-pyrido[2,3-b][1,4]oxazin-7-ylsulfonyl)-1-oxa-8-azaspiro[4.5]decan-3-ylamino)propan-2-ol] | 15
Cc1cc(=O)[nH]c2ccc(S(=O)(=O)N3CCC4(CC3)C[C@@H](NC[C@H](O)COc3cccc(S(=O)(=O)C5(CO)CC5)c3)CO4)cc12 [Compound 236, 6-((R)-3-((S)-2-hydroxy-3-(3-(1-(hydroxymethyl)cyclopropylsulfonyl)phenoxy)propylamino)-1-oxa-8-azaspiro[4.5]decan-8-ylsulfonyl)-4-methylquinolin-2(1H)-one] | 369
CCOc1ccc(S(=O)(=O)N2CCC3(CC2)C[C@H](NC[C@H](O)COc2cccc(S(=O)(=O)C4(CO)CC4)c2)CO3)cc1-c1ccc(CN)cc1 [Compound 237, (S)-1-((S)-8-(4′-(aminomethyl)-6-ethoxybiphenyl-3-ylsulfonyl)-1-oxa-8-azaspiro[4.5]decan-3-ylamino)-3-(3-(1-(hydroxymethyl)cyclopropylsulfonyl)phenoxy)propan-2-ol] | 82
COc1ccc(S(=O)(=O)N2CCC3(CC2)C[C@H](NC[C@H](O)COc2cccc(S(=O)(=O)C(F)(F)CO)c2)CO3)cc1-c1ccc(CN)cc1 [Compound 238, (S)-1-((S)-8-(4′-(aminomethyl)-6-methoxybiphenyl-3-ylsulfonyl)-1-oxa-8-azaspiro[4.5]decan-3-ylamino)-3-(3-(1,1-difluoro-2-hydroxyethylsulfonyl)phenoxy)propan-2-ol] | 22.8
COc1ccc(S(=O)(=O)N2CCC3(CC2)C[C@H](NC[C@H](O)COc2cccc(S(=O)(=O)C(F)(F)CO)c2)CO3)cc1-c1ccc(C2(N)CC2)cc1 [Compound 239, (S)-1-((S)-8-(4′-(1-aminocyclopropyl)-6-methoxybiphenyl-3-ylsulfonyl)-1-oxa-8-azaspiro[4.5]decan-3-ylamino)-3-(3-(1,1-difluoro-2-hydroxyethylsulfonyl)phenoxy)propan-2-ol] | 30.9
CC(C)(C)NCc1ccc(-c2cccc(S(=O)(=O)N3CCC4(CC3)C[C@H](NC[C@H](O)COc3cccc(S(=O)(=O)C5(CO)CC5)c3)CO4)c2)cc1 [Compound 240, (S)-1-((S)-8-(4′-((tert-butylamino)methyl)biphenyl-3-ylsulfonyl)-1-oxa-8-azaspiro[4.5]decan-3-ylamino)-3-(3-(1-(hydroxymethyl)cyclopropylsulfonyl)phenoxy)propan-2-ol] | 31.7
CCC(C)(C)NCc1ccc(-c2cccc(S(=O)(=O)N3CCC4(CC3)C[C@H](NC[C@H](O)COc3cccc(S(=O)(=O)C5(CO)CC5)c3)CO4)c2)cc1 [Compound 241, (S)-1-(3-(1-(hydroxymethyl)cyclopropylsulfonyl)phenoxy)-3-((S)-8-(4′-((tert-pentylamino)methyl)biphenyl-3-ylsulfonyl)-1-oxa-8-azaspiro[4.5]decan-3-ylamino)propan-2-ol] | 21.1
O=S(=O)(c1cccc(-c2ccc(CNCC(F)(F)F)cc2)c1)N1CCC2(CC1)C[C@H](NC[C@H](O)COc1cccc(S(=O)(=O)C3(CO)CC3)c1)CO2 [Compound 242, (S)-1-(3-(1-(hydroxymethyl)cyclopropylsulfonyl)phenoxy)-3-((S)-8-(4′-((2,2,2-trifluoroethylamino)methyl)biphenyl-3-ylsulfonyl)-1-oxa-8-azaspiro[4.5]decan-3-ylamino)propan-2-ol] | 35.5
